Patent publication US20250073249A1, “STEROID COMPOUND, AND PREPARATION METHOD THEREFOR AND USE THEREOF” (SHANGHAI INSTITUTE OF MATERIA MEDICA, CHINESE ACADEMY OF …, priority 2022, published 2025)

Legend:
Format in all cases: cell-based
[1] = target: T1, AR (Homo sapiens, UniProt P10275, T878A); assay: In vitro AR degradation activity test in LNCaP cells (ELISA, OD450); conditions: for DC50: LNCaP cells, 24 hours; for AR degradation activity, improvement compared to Galeterone: ratio to Galeterone DC50
T1 construct: endogenous in cells; host or cells: LNCaP
T1 sequence (P10275 1-920 T878A): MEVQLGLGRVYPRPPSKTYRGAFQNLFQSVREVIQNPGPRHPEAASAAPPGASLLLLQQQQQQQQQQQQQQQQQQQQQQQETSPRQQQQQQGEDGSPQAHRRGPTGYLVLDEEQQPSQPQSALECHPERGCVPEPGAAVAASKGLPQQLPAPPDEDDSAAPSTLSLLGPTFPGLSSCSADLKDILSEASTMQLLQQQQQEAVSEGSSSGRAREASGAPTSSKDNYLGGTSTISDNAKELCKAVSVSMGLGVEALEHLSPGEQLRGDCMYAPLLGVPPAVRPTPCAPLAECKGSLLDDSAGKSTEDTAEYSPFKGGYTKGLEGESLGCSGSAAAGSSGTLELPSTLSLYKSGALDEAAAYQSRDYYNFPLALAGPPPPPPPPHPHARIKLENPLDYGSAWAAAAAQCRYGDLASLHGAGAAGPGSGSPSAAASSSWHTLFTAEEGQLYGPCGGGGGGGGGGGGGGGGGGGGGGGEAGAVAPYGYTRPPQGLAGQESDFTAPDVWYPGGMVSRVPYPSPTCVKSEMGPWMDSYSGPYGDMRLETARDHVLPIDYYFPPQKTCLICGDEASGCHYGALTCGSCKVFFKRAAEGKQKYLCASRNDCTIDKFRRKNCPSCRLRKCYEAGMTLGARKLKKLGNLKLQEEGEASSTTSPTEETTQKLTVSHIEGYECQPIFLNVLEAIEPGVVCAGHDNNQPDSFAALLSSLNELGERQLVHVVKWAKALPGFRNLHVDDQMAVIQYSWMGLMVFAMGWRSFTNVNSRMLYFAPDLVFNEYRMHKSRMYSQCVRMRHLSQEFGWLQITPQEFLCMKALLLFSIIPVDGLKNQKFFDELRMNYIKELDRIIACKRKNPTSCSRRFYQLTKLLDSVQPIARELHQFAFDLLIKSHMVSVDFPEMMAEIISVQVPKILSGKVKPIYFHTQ
Summary of the method: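 AR in protein-normalized lysates was quantified by sandwich ELISA with HRP detection at OD450. Degradation rate (%) was computed from OD450 max/min controls, and IC50 was derived from it.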

[2] = test system: ACE2; assay: ACE2 mRNA expression in A549 cells (qPCR)
[3] = test system: TMPRSS2; assay: TMPRSS2 mRNA expression in A549 cells (qPCR)
[4] = 10 μM, 1 nM DHT, 48 h, Blank = 1

| SMILES | DC50 [1] [nM] | AR degradation activity, improvement compared to Galeterone [1] [times] | Expression of ACE2 protein, in words [2] | ACE2 mRNA level [2, 4] | Expression of TMPRSS2 protein, in words [3] | TMPRSS2 mRNA level [3, 4] |
| --- | --- | --- | --- | --- | --- | --- |
| Cc1cn(C2=CCC3C4CC=C5C[C@@H](NC(=O)c6ccc(F)cc6)CC[C@]5(C)C4CC[C@]23C)cn1 (stereo partly drawn) [Compound 33, N-((3S,10R,13S)-17-(4-methyl-1H-imidazol-1-yl)-10,13-dimethyl-2,3,4,7,8,9,10,11,12,13,14,15-dodecahydro-1H-cyclopenta[a]phenanthren-3-yl)-4-fluorobenzamide] | 1280 | 8.1 |  |  |  |  |
| Cc1cn(C2=CCC3C4CC=C5C[C@@H](NC(=O)c6ccc(S(C)(=O)=O)cc6)CC[C@]5(C)C4CC[C@]23C)cn1 (stereo partly drawn) [Compound 35, N-((3S,10R,13S)-17-(4-methyl-1H-imidazol-1-yl)-10,13-dimethyl-2,3,4,7,8,9,10,11,12,13,14,15-dodecahydro-1H-cyclopenta[a]phenanthren-3-yl)-4-(methylsulfonyl)benzamide] | 1560 | 6.7 | significantly downregulate | 0.102 | significantly downregulate | 0.394 |
| Cc1cn(C2=CCC3C4CC=C5C[C@@H](NC(=O)c6ccc(F)cc6F)CC[C@]5(C)C4CC[C@]23C)cn1 (stereo partly drawn) [Compound 37, N-((3S,10R,13S)-17-(4-methyl-1H-imidazol-1-yl)-10,13-dimethyl-2,3,4,7,8,9,10,11,12,13,14,15-dodecahydro-1H-cyclopenta[a]phenanthren-3-yl)-2,4-difluorobenzamide] | 1680 | 6.2 |  |  |  |  |
